Reference: patent US12312605B2, “Riboflavin derivative-containing medium” (AJINOMOTO CO., INC., priority 2017, dated 2025)
Structures can show the parent of a compound that is named as a salt.

How the values were obtained:
Type in all cases: cell-based
iPS cells (201B7 strain) [1] = assay: Effectiveness of RFV during iPS cell culture (cell confluency, day 7); settings: Modified DMEM/F-12 (FMN-) + Essential 8 supplement, RFV 0.00-0.176 mg/L, Fe2+ and Zn2+ 25 or 100 mol %, Matrigel
Method: 201B7 strain purchased from iPS Academia Japan, Inc. was used as the iPS cell. Cell culture was performed using a culture vessel coated with Matrigel (Nippon Becton, Dickinson and Company: 354277) or iMatrix-511 (Nippi. Inc.: 892002) as an extracellular matrix under conditions of 5% CO2/37° C. Whether RFV is an essential component during iPS cell culture was studied. A complete medium was prepared by mixing the basal medium (Solution A: Modified DMEM/F-12 (FMN−)) and Essential 8 supplement (Solution B). Media were prepared by adding RFV to the complete medium to final concentrations of 0.00, 0.0176, 0.044, 0.088, 0.176 mg/L (No. 1 to No. 5 in Table 3). Along therewith, to grasp the influence of the reduced mineral components, media supplemented with Fe^2+ and Zn^2+ at 100 mol % were also prepared (No. 6 to No. 10 in Table 3). After preparing the medium, a 12-well plate coated with Matrigel was prepared, and 10,000 cells per well were seeded in a single cell state. On the day when the cells were seeded, the evaluation was performed using the medium prepared above. The culture period was set to 7 days, and the cell confluency was measured as an index of cell proliferation using IncuCyte Zoom (Essen Bioscience) on day 7 from the start of the culture. […]

iPS cells (201B7 strain) [2] = assay: Influence of Fe, Zn, RFV on storage stability of medium (iPS cell confluency); settings: Essential 8 supplement; for contribution to lowering of storage stability of the medium: 100 vs 25 mol % in Modified DMEM/F-12 with FMN 20 mol %, refrigerated 2 weeks
Method: (§1) 201B7 strain purchased from iPS Academia Japan, Inc. was used as the iPS cell. Cell culture was performed using a culture vessel coated with Matrigel (Nippon Becton, Dickinson and Company: 354277) or iMatrix-511 (Nippi. Inc.: 892002) as an extracellular matrix under conditions of 5% CO2/37° C.
(§2) Modified DMEM/F-12 was mixed with each supplement of Essential 8 (Thermo Fisher SCIENTIFIC: A1517001), TeSR-E8 (STEMCELL Technologies: #05940), TeSR2 (STEMCELL Technologies: #05860) to prepare a complete medium. The medium was stored in a refrigerator with a glass door under non-light-shielding (fluorescent light irradiation time: 10 hr/day) and then used for culture, based on which the storage stability of the medium was studied.
To what extent Fe^2+, Zn^2+ and RFV contribute to the storage stability of the medium was studied. Complete media were respectively prepared by adding each component to Modified DMEM/F-12 (FMN−) (Table 5). Each medium was refrigerated under non-light-shielding for 0 and 2 weeks and then the proliferation ability of iPS cells was studied.
(§3) A 12-well plate coated with Matrigel was prepared, 10,000 cells per well were seeded in a single cell state. On the day when the cells were seeded, the evaluation was performed using the medium prepared above. The culture period was set to 7 days, and the cell confluency was measured using IncuCyte Zoom on day 7 from the start of the culture. At the time of seeding, a medium supplemented with Y-27632 at a final concentration of 10 μM was used. In the evaluation from the following day, the cells were cultured in a medium not supplemented with Y-27632.

iPS cells (201B7 strain) [3] = assay: Effective concentration of RFV derivatives: iPS cell growth in medium refrigerated for 2 weeks; design: key to cell growth: X; not grown; ◯; cell grown; settings: for storage stability of medium compared with RFV: any medium (Essential 8 or TeSR2 supplement), refrigerated 2 weeks
Method: as §1, §2
The effectiveness of FAD and RTB, which are RFV derivatives, was studied, and the effective concentration ranges of FMN, FAD and RTB were studied. A complete medium was prepared using Modified DMEM/F-12 (FMN−) as the basal medium and Essential 8 or TeSR2 supplement as the supplement. RFV, FMN (Riboflavin 5′-Monophosphate Sodium Salt), FAD (Flavin Adenine Dinucleotide Disodium Salt Hydrate (Tokyo Chemical m Industry Co., Ltd., F0014, hereinafter the same)) and RTB (Riboflavin Tetrabutyrate, Wako Pure Chemical Industries, Ltd., 185-00861) were each added to the complete medium at a final concentration of 0.47 to 15.2 μM (concentration converted to free form anhydrate in the case of salt and/or hydrate). A medium supplemented with Fe^2+ and Zn^2+ at 100 mol % was also prepared.
as §3, with “Each medium was refrigerated under non-light-shielding for 2 weeks and then the proliferation ability of iPS cells was studied. A 12-well” for “A 12-well”
To study the effective concentration range of FAD, which is an RFV derivative, the unperformed part of Example 5 was evaluated. A complete medium was prepared using Modified DMEM/F-12 (FMN−) as the basal medium and TeSR2 supplement as the supplement. FAD (Flavin Adenine Dinucleotide Disodium Salt Hydrate) was added to the complete medium at a final concentration of 0.47 to 15.2 μM. A medium supplemented with Fe^2+ and Zn^2+ at 100 mol % was prepared.

[4] = 0.47 μM (80 mol % vs DMEM/F-12), Fe2+ and Zn2+ 25 mol %, Essential 8 supplement, medium refrigerated 2 weeks
[5] = 0.47 μM (80 mol % vs DMEM/F-12), Fe2+ and Zn2+ 25 mol %, TeSR2 supplement, medium refrigerated 2 weeks
[6] = 0.47 μM (80 mol % vs DMEM/F-12), Fe2+ and Zn2+ 100 mol %, Essential 8 supplement, medium refrigerated 2 weeks
[7] = 0.47 μM (80 mol % vs DMEM/F-12), Fe2+ and Zn2+ 100 mol %, TeSR2 supplement, medium refrigerated 2 weeks, Example 5
[8] = 1.52 μM (259 mol % vs DMEM/F-12), Fe2+ and Zn2+ 25 mol %, Essential 8 supplement, medium refrigerated 2 weeks
[9] = 1.52 μM (259 mol % vs DMEM/F-12), Fe2+ and Zn2+ 100 mol %, Essential 8 supplement, medium refrigerated 2 weeks
[10] = 2.57 μM (437 mol % vs DMEM/F-12), Fe2+ and Zn2+ 25 mol %, TeSR2 supplement, medium refrigerated 2 weeks
[11] = 2.57 μM (437 mol % vs DMEM/F-12), Fe2+ and Zn2+ 100 mol %, TeSR2 supplement, medium refrigerated 2 weeks, Example 5
[12] = 15.2 μM (2587 mol % vs DMEM/F-12), Fe2+ and Zn2+ 25 mol %, TeSR2 supplement, medium refrigerated 2 weeks
[13] = 15.2 μM (2587 mol % vs DMEM/F-12), Fe2+ and Zn2+ 100 mol %, TeSR2 supplement, medium refrigerated 2 weeks, Example 5

How did the “effectiveness of RFV during iPS cell culture (cell confluency)” value (iPS cells (201B7 strain) [1]) turn out when `Cc1cc2nc3c(=O)[nH]c(=O)nc-3n(C[C@H](O)[C@H](O)[C@H](O)CO)c2cc1C` [RFV, riboflavin] was run?
Its value is “essential for cell culture”.

And the “cell growth after storage of medium” value (iPS cells (201B7 strain) [2]; medium refrigerated non-light-shielded 2 weeks, Matrigel, day 7)?
Its value is “cells could not grow after storage for 2 weeks”.

And the cell growth (iPS cells (201B7 strain) [3]; [4])?
Its cell growth is “X”.

What about the cell growth (iPS cells (201B7 strain) [3]; [5]) of the same molecule?
Its cell growth is “◯”.

What about the cell growth (iPS cells (201B7 strain) [3]; [6]) of the same molecule?
The cell growth was “X”.

What about the cell growth (iPS cells (201B7 strain) [3]; [7]) of the same molecule?
Its cell growth is “◯”.

And the cell growth (iPS cells (201B7 strain) [3]; [8])?
The cell growth was “X”.

What about the cell growth (iPS cells (201B7 strain) [3]; [9]) of the same molecule?
Its cell growth is “X”.

And the cell growth (iPS cells (201B7 strain) [3]; [10])?
The cell growth was “X”.

And the cell growth (iPS cells (201B7 strain) [3]; [11])?
Its cell growth is “X”.

What about the cell growth (iPS cells (201B7 strain) [3]; [12]) of the same molecule?
The cell growth was “X”.

What about the cell growth (iPS cells (201B7 strain) [3]; [13]) of the same molecule?
The cell growth was “X”.

With `Cc1cc2nc3c(=O)[nH]c(=O)nc-3n(C[C@H](O)[C@H](O)[C@H](O)COP(=O)(O)O)c2cc1C` [FMN, Riboflavin 5′-Monophosphate Sodium Salt] as the molecule, how does the cell growth (iPS cells (201B7 strain) [3]; [4]) read?
The cell growth was “◯”.

What about the cell growth (iPS cells (201B7 strain) [3]; [5]) of the same molecule?
Its cell growth is “◯”.

And the cell growth (iPS cells (201B7 strain) [3]; [6])?
The cell growth was “◯”.

What about the cell growth (iPS cells (201B7 strain) [3]; [7]) of the same molecule?
The cell growth was “◯”.

And the cell growth (iPS cells (201B7 strain) [3]; [8])?
The cell growth was “X”.

What about the cell growth (iPS cells (201B7 strain) [3]; [9]) of the same molecule?
The cell growth was “X”.

What about the cell growth (iPS cells (201B7 strain) [3]; [10]) of the same molecule?
Its cell growth is “◯”.

What about the cell growth (iPS cells (201B7 strain) [3]; [11]) of the same molecule?
Its cell growth is “X”.

What about the cell growth (iPS cells (201B7 strain) [3]; [12]) of the same molecule?
The cell growth was “X”.

What about the cell growth (iPS cells (201B7 strain) [3]; [13]) of the same molecule?
Its cell growth is “X”.

And the “storage stability of medium compared with RFV” value (iPS cells (201B7 strain) [3])?
The value was “higher storage stability than that of RFV”.

`CCCC(=O)OC[C@@H](OC(=O)CCC)[C@@H](OC(=O)CCC)[C@H](Cn1c2nc(=O)[nH]c(=O)c-2nc2cc(C)c(C)cc21)OC(=O)CCC` [RTB, Riboflavin Tetrabutyrate] was tested. Which cell growth (iPS cells (201B7 strain) [3]; [4]) did it give?
Its cell growth is “◯”.

And the cell growth (iPS cells (201B7 strain) [3]; [5])?
The cell growth was “◯”.

What about the cell growth (iPS cells (201B7 strain) [3]; [6]) of the same molecule?
The cell growth was “◯”.

What about the cell growth (iPS cells (201B7 strain) [3]; [7]) of the same molecule?
Its cell growth is “◯”.

And the cell growth (iPS cells (201B7 strain) [3]; [8])?
Its cell growth is “X”.

What about the cell growth (iPS cells (201B7 strain) [3]; [9]) of the same molecule?
Its cell growth is “X”.

What about the cell growth (iPS cells (201B7 strain) [3]; [10]) of the same molecule?
Its cell growth is “X”.

And the cell growth (iPS cells (201B7 strain) [3]; [11])?
Its cell growth is “X”.

What about the cell growth (iPS cells (201B7 strain) [3]; [12]) of the same molecule?
Its cell growth is “X”.

And the cell growth (iPS cells (201B7 strain) [3]; [13])?
The cell growth was “X”.

And the “storage stability of medium compared with RFV” value (iPS cells (201B7 strain) [3])?
Its value is “higher storage stability than that of RFV”.

Which results are given for `Cc1cc2nc3c(=O)[nH]c(=O)nc-3n(C[C@H](O)[C@H](O)[C@H](O)COP(=O)(O)OP(=O)(O)OC[C@H]3O[C@@H](n4cnc5c(N)ncnc54)[C@H](O)[C@@H]3O)c2cc1C` [FAD, Flavin Adenine Dinucleotide Disodium Salt Hydrate]?
cell growth (iPS cells (201B7 strain) [3]; [4]): ◯; cell growth (iPS cells (201B7 strain) [3]; [5]): ◯; cell growth (iPS cells (201B7 strain) [3]; [6]): ◯; cell growth (iPS cells (201B7 strain) [3]; [7]): ◯; cell growth (iPS cells (201B7 strain) [3]; 0.47 μM (80 mol % vs DMEM/F-12), Fe2+ and Zn2+ 100 mol %, TeSR2 supplement, medium refrigerated 2 weeks, Example 6): ◯; cell growth (iPS cells (201B7 strain) [3]; [8]): ◯; cell growth (iPS cells (201B7 strain) [3]; [9]): X; cell growth (iPS cells (201B7 strain) [3]; [10]): ◯; cell growth (iPS cells (201B7 strain) [3]; 2.57 μM (437 mol % vs DMEM/F-12), Fe2+ and Zn2+ 100 mol %, TeSR2 supplement, medium refrigerated 2 weeks, Example 6): ◯; cell growth (iPS cells (201B7 strain) [3]; [12]): ◯; cell growth (iPS cells (201B7 strain) [3]; [13]): X; cell growth (iPS cells (201B7 strain) [3]; 15.2 μM (2587 mol % vs DMEM/F-12), Fe2+ and Zn2+ 100 mol %, TeSR2 supplement, medium refrigerated 2 weeks, Example 6): X; concentration at which culturing was possible (comparison) (iPS cells (201B7 strain) [3]; Essential 8 or TeSR2 supplement, medium refrigerated 2 weeks): higher for FAD than FMN and RTB; storage stability of medium compared with RFV (iPS cells (201B7 strain) [3]): higher storage stability than that of RFV

For `O.O.O.O.O.O.O.O=S(=O)([O-])[O-].[Fe+2]` [Fe^2+, iron (II) sulfate heptahydrate], which “contribution to lowering of storage stability of the medium” value (iPS cells (201B7 strain) [2]) is on record?
Its value is “do not contribute to lowering of storage stability”.

Which “contribution to lowering of storage stability of the medium” value (iPS cells (201B7 strain) [2]) does the source give for `O.O.O.O.O.O.O.O=S(=O)([O-])[O-].[Zn+2]` [Zn^2+, zinc sulfate heptahydrate] here?
Its value is “do not contribute to lowering of storage stability”.
